Experimental data reported in US11053204B2, “Pyrimidinyloxy benzene derivatives as herbicides” (FMC Corporation, priority 2015, dated 2021).

Key:
Type in all cases: in vivo
[1] = test system: Italian ryegrass (Lolium multiflorum); assay: Test A preemergence, visual injury rating
How it was run: (§1)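 Greenhouse pot test, loam/sand soil. Formulation: non-phytotoxic solvent mix plus surfactant. Pre: directed spray onto soil after sowing. Post: plants at 1–2 leaf, 2–10 cm. Rated visually vs untreated controls at ~10 d, 0 (no effect) to 100 (complete control).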

[2] = test system: barnyardgrass (Echinochloa crus-galli); assay: Test A preemergence, visual injury rating
How it was run: as §1

[3] = test system: giant foxtail (Setaria faberii); assay: Test A preemergence, visual injury rating
How it was run: as §1

kochia (Kochia scoparia) [4] = assay: Test A preemergence, visual injury rating
How it was run: as §1

[5] = test system: pigweed (Amaranthus retroflexus); assay: Test A preemergence, visual injury rating
How it was run: as §1

[6] = test system: ragweed (common ragweed, Ambrosia elatior); assay: Test A preemergence, visual injury rating
How it was run: as §1

[7] = test system: Italian ryegrass (Lolium multiflorum); assay: Test A postemergence, visual injury rating
How it was run: as §1

[8] = test system: barnyardgrass (Echinochloa crus-galli); assay: Test A postemergence, visual injury rating; details: 0 is no effect, 100 is complete control; for Barnyardgrass plant response rating: 0 to 100 scale, approximately 10 days
How it was run: as §1

[9] = test system: blackgrass (Alopecurus myosuroides); assay: Test A postemergence, visual injury rating
How it was run: as §1

corn (Zea mays) = assay: Test A postemergence, visual injury rating
How it was run: as §1

[10] = test system: galium (catchweed bedstraw, Galium aparine); assay: Test A postemergence, visual injury rating
How it was run: as §1

[11] = test system: giant foxtail (Setaria faberii); assay: Test A postemergence, visual injury rating
How it was run: as §1

kochia (Kochia scoparia) [12] = assay: Test A postemergence, visual injury rating
How it was run: as §1

[13] = test system: pigweed (Amaranthus retroflexus); assay: Test A postemergence, visual injury rating
How it was run: as §1

[14] = test system: ragweed (common ragweed, Ambrosia elatior); assay: Test A postemergence, visual injury rating
How it was run: as §1

[15] = test system: wheat (Triticum aestivum); assay: Test A postemergence, visual injury rating
How it was run: as §1

[16] = test system: barnyardgrass (Echinochloa crus-galli); assay: Test B flooded paddy test, plant response rating; details: 250 g ai/ha; Flood; scale of 0 to 100 where 0 is no effect and 100 is complete control; 13 to 15 days
How it was run: (§2)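 Flooded 3 cm over soil; compound into paddy water; depth kept constant. Greenhouse 13–15 d.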

[17] = test system: ducksalad (Heteranthera limosa); assay: Test B flooded paddy test, plant response rating; details: 250 g ai/ha; Flood; scale of 0 to 100 where 0 is no effect and 100 is complete control; 13 to 15 days
How it was run: as §2

rice (Oryza sativa) = assay: Test B flooded paddy test, plant response rating; details: 250 g ai/ha; Flood; scale of 0 to 100 where 0 is no effect and 100 is complete control; 13 to 15 days
How it was run: as §2

[18] = test system: sedge, umbrella (small-flower umbrella sedge, Cyperus difformis); assay: Test B flooded paddy test, plant response rating; details: 250 g ai/ha; Flood; scale of 0 to 100 where 0 is no effect and 100 is complete control; 13 to 15 days
How it was run: as §2

[19] = 31 g ai/ha, 0 to 100 scale, 0 no effect, 100 complete control
[20] = 125 g ai/ha, 0 to 100 scale (0 no effect, 100 complete control)
[21] = 31 g ai/ha, 0 to 100 scale, 0 is no effect, 100 is complete control, approximately 10 days
[22] = 125 g ai/ha, 0 is no effect, 100 is complete control
[23] = 31 g ai/ha, 0 to 100 scale (0 no effect, 100 complete control)
[24] = 125 g ai/ha, 0 to 100 scale, 0 is no effect, 100 is complete control, approximately 10 days

O=C(OC(CCl)CCl)c1c(Br)cccc1Oc1ncc(Cl)cn1 [Compound 36]
0: Plant response rating, Ryegrass, Italian [1, 19] | Ryegrass, Italian plant response rating [1, 20] | Plant response rating, Barnyardgrass [2, 19] | Barnyardgrass plant response rating [2, 20] | Plant response rating, Foxtail, Giant [3, 19] | Foxtail, Giant plant response rating [3, 20] | Plant response rating, Kochia (kochia (Kochia scoparia) [4]; [19]) | Kochia plant response rating (kochia (Kochia scoparia) [4]; [20]) | Plant response rating, Pigweed [5, 19] | Pigweed plant response rating [5, 20] | Plant response rating, Ragweed [6, 19] | Ragweed plant response rating [6, 20] | Ryegrass, Italian plant response rating [7, 21] | Ryegrass, Italian plant response rating (0 to 100 scale) [7, 22] | Barnyardgrass plant response rating ([8]; 31 g ai/ha) | Barnyardgrass plant response rating (0 to 100 scale) ([8]; 125 g ai/ha) | Blackgrass plant response rating [9, 21] | Blackgrass plant response rating (0 to 100 scale) [9, 22] | Corn plant response rating (corn (Zea mays); [21]) | Corn plant response rating (0 to 100 scale) (corn (Zea mays); [22]) | Galium plant response rating [10, 21] | Galium plant response rating (0 to 100 scale) [10, 22] | Foxtail, Giant plant response rating [11, 21] | Foxtail, Giant plant response rating (0 to 100 scale) [11, 22] | Kochia plant response rating (kochia (Kochia scoparia) [12]; [21]) | Kochia plant response rating (0 to 100 scale) (kochia (Kochia scoparia) [12]; [22]) | Pigweed plant response rating [13, 21] | Ragweed plant response rating [14, 21] | Ragweed plant response rating (0 to 100 scale) [14, 22] | Wheat plant response rating [15, 21] | Wheat plant response rating (0 to 100 scale) [15, 22] | Plant response rating, Barnyardgrass [16] | Plant response rating, Ducksalad [17] | Plant response rating, Rice (rice (Oryza sativa)) | Plant response rating, Sedge, Umbrella [18]
60: Pigweed plant response rating (0 to 100 scale) [13, 22]

CCc1cccc(Oc2ncc(Cl)cn2)c1CCCCC(F)(F)F [Compound 134]
0: Plant response rating, Ryegrass, Italian [1, 19] | Plant response rating, Barnyardgrass [2, 19] | Plant response rating, Kochia (kochia (Kochia scoparia) [4]; [19]) | Plant response rating, Pigweed [5, 19] | Plant response rating, Ragweed [6, 19] | Plant response rating, Ragweed [6, 20] | Ryegrass, Italian plant response rating [7, 23] | Barnyardgrass plant response rating ([8]; 31 g ai/ha) | Ragweed plant response rating [14, 23] | Wheat plant response rating [15, 23] | Plant response rating, Barnyardgrass [16]
60: Kochia plant response rating (kochia (Kochia scoparia) [12]; [24])
50: Plant response rating, Pigweed [5, 20]
10: Plant response rating, Foxtail, Giant [3, 19] | Plant response rating, Kochia (kochia (Kochia scoparia) [4]; [20]) | Ryegrass, Italian plant response rating [7, 24] | Blackgrass plant response rating [9, 23] | Corn plant response rating (corn (Zea mays); [23]) | Corn plant response rating (corn (Zea mays); [24]) | Galium plant response rating [10, 23] | Foxtail, Giant plant response rating [11, 23] | Ragweed plant response rating [14, 24] | Wheat plant response rating [15, 24]
90: Plant response rating, Foxtail, Giant [3, 20]
80: Plant response rating, Barnyardgrass [2, 20] | Pigweed plant response rating [13, 24]
20: Plant response rating, Ryegrass, Italian [1, 20] | Barnyardgrass plant response rating ([8]; 125 g ai/ha) | Blackgrass plant response rating [9, 24] | Foxtail, Giant plant response rating [11, 24] | Kochia plant response rating (kochia (Kochia scoparia) [12]; [23]) | Plant response rating, Rice (rice (Oryza sativa))
40: Galium plant response rating [10, 24] | Pigweed plant response rating [13, 23]
95: Plant response rating, Ducksalad [17] | Plant response rating, Sedge, Umbrella [18]
